Reference: patent US20250161232A1, “RETINOL FORMULATION (VI)” (DSM IP Assets B.V., priority 2022, published 2025)

Experiment: Storage stability of retinol formulations at 40° C. (retinol content after storage)
Type: physicochemical
Settings: storage at 40° C.
Experimental: To determine the stability of these formulations, they were stored (at 40° C.) for 2 weeks and 12 weeks. And the loss of retinol was measure (the initial value was 100%).

cis/trans ratio of the retinol during storage (in words): stable
SMILES: CC1=C(/C=C/C(C)=C/C=C/C(C)=C/CO)C(C)(C)CCC1 [retinol, Retinol]
